Test results: patent publication US8592455B2 (priority 2008, dated 2013)

What was measured:
Pim1 kinase = Pim1 kinase (Homo sapiens (Human), UniProt P11309); conditions: read-out: Pim1 IC50
Pim3 kinase = Pim3 kinase (Homo sapiens (Human), UniProt Q86V86); conditions: read-out: Pim3 IC50

Pim1 kinase, sequence (P11309 whole entry): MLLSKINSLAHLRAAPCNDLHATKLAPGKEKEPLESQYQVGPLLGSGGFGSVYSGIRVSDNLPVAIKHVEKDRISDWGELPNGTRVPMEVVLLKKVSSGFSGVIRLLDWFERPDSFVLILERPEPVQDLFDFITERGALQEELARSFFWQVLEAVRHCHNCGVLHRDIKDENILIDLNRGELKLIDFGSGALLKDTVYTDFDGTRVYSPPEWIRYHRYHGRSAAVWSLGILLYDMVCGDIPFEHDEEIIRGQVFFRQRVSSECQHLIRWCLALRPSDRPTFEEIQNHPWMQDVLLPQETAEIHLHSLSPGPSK

N[C@H]1CCC[C@@H](c2ccncc2NC(=O)c2ccc(F)c(-c3cc(F)cc(F)c3F)n2)C1 [Example 14, N-(4-((1R,3S)-3-aminocyclohexyl)pyridin-3-yl)-5-fluoro-6-(2,3,5-trifluorophenyl)picolinamide]
IC50 (Pim1 kinase): 6 nM
IC50 (Pim3 kinase): 12 nM

CCc1ccc(F)c(-c2cccc(C(=O)Nc3cnccc3[C@H]3C[C@@H](N)[C@H](O)[C@@H](C)C3)n2)c1F [Example 15, N-(4-((1R,3R,4R,5S)-3-amino-4-hydroxy-5-methylcyclohexyl)pyridin-3-yl)-6-(3-ethyl-2,6-difluorophenyl)picolinamide]
IC50 (Pim1 kinase): 3 nM
IC50 (Pim3 kinase): 6 nM

CCc1ccc(F)c(-c2cccc(C(=O)Nc3cnccc3[C@H]3C[C@@H](N)[C@@H](O)[C@@H](C)C3)n2)c1F [Example 17, N-(4-((1R,3R,4S,5S)-3-amino-4-hydroxy-5-methylcyclohexyl)pyridin-3-yl)-6-(3-ethyl-2,6-difluorophenyl)picolinamide]
IC50 (Pim1 kinase): 1 nM
IC50 (Pim3 kinase): 5 nM

CCc1ccc(F)c(-c2cccc(C(=O)Nc3cnccc3[C@@H]3CCC[C@H](N)C3)n2)c1F [Example 19, N-(4-((1R,3S)-3-aminocyclohexyl)pyridin-3-yl)-6-(3-ethyl-2,6-difluorophenyl)picolinamide]
IC50 (Pim1 kinase): 3 nM
IC50 (Pim3 kinase): 7 nM

Cc1ccc(F)c(-c2nc(C(=O)Nc3cnccc3[C@@H]3CCC[C@H](N)C3)ccc2F)c1F [Example 20, N-(4-((1R,3S)-3-aminocyclohexyl)pyridin-3-yl)-6-(2,6-difluoro-3-methylphenyl)-5-fluoropicolinamide]
IC50 (Pim1 kinase): 1 nM
IC50 (Pim3 kinase): 3 nM

CCc1ccc(F)c(-c2cccc(C(=O)Nc3cnccc3[C@@H]3C[C@H](C)C[C@H](N)C3)n2)c1F [Example 21, N-(4-((1R,3S,5S)-3-amino-5-methylcyclohexyl)pyridin-3-yl)-6-(3-ethyl-2,6-difluorophenyl)picolinamide]
IC50 (Pim1 kinase): 2 nM
IC50 (Pim3 kinase): 6 nM

Cc1ccc(F)c(-c2nc(C(=O)Nc3cnccc3N3C[C@@H](N)[C@H](O)[C@@H](C)C3)ccc2F)c1F [Example 22, N-(4-((3R,4R,5S)-3-amino-4-hydroxy-5-methylpiperidin-1-yl)pyridin-3-yl)-6-(2,6-difluoro-3-methylphenyl)-5-fluoropicolinamide]
IC50 (Pim1 kinase): 1 nM
IC50 (Pim3 kinase): 3 nM

C[C@H]1CN(c2ccncc2NC(=O)c2cccc(-c3ccccc3F)n2)C[C@@H](N)[C@@H]1O [Example 23, N-(4-((3R,4R,5S)-3-amino-4-hydroxy-5-methylpiperidin-1-yl)pyridin-3-yl)-6-(2-fluorophenyl)picolinamide]
IC50 (Pim1 kinase): 2 nM
IC50 (Pim3 kinase): 3 nM

C[C@H]1CN(c2ccncc2NC(=O)c2nc(-c3c(F)cccc3F)ccc2F)C[C@@H](N)[C@@H]1O [Example 24, N-(4-((3R,4R,5S)-3-amino-4-hydroxy-5-methylpiperidin-1-yl)pyridin-3-yl)-6-(2,6-difluorophenyl)-3-fluoropicolinamide]
IC50 (Pim1 kinase): 1 nM
IC50 (Pim3 kinase): 1 nM

Cc1ccc(F)c(-c2nc(C(=O)Nc3cnccc3[C@@H]3C[C@H](C)C[C@H](N)C3)ccc2F)c1F [Example 27, N-(4-((1R,3S,5S)-3-amino-5-methylcyclohexyl)pyridin-3-yl)-6-(2,6-difluoro-3-methylphenyl)-5-fluoropicolinamide]
IC50 (Pim1 kinase): 1 nM
IC50 (Pim3 kinase): 2 nM

Cc1ccc(F)c(-c2cccc(C(=O)Nc3cnccc3[C@@H]3CCC[C@H](N)C3)n2)c1F [Example 28, N-(4-((1R,3S)-3-aminocyclohexyl)pyridin-3-yl)-6-(2,6-difluoro-3-methylphenyl)picolinamide]
IC50 (Pim1 kinase): 1 nM
IC50 (Pim3 kinase): 2 nM

Cc1ccc(F)c(-c2cccc(C(=O)Nc3cnccc3[C@H]3C[C@@H](N)[C@H](O)[C@@H](C)C3)n2)c1F [Example 30, N-(4-((1R,3R,4R,5S)-3-amino-4-hydroxy-5-methylcyclohexyl)pyridin-3-yl)-6-(2,6-difluoro-3-methylphenyl)picolinamide]
IC50 (Pim1 kinase): 2 nM
IC50 (Pim3 kinase): 4 nM

Cc1ccc(F)c(-c2cccc(C(=O)Nc3cnccc3[C@H]3C[C@@H](N)[C@@H](O)[C@@H](C)C3)n2)c1F [Example 31, N-(4-((1R,3R,4S,5S)-3-amino-4-hydroxy-5-methylcyclohexyl)pyridin-3-yl)-6-(2,6-difluoro-3-methylphenyl)picolinamide]
IC50 (Pim1 kinase): 2 nM
IC50 (Pim3 kinase): 4 nM

N[C@H]1CCC[C@@H](c2ccncc2NC(=O)c2ccc(F)c(-c3c(F)cc(O)cc3F)n2)C1 [Example 32, N-(4-((1R,3S)-3-aminocyclohexyl)pyridin-3-yl)-6-(2,6-difluoro-4-hydroxyphenyl)-5-fluoropicolinamide]
IC50 (Pim1 kinase): 1 nM
IC50 (Pim3 kinase): 3 nM

N[C@H]1CCC[C@@H](c2ccncc2NC(=O)c2ccc(F)c(-c3cc(O)ccc3F)n2)C1 [Example 33, N-(4-((1R,3S)-3-aminocyclohexyl)pyridin-3-yl)-5-fluoro-6-(2-fluoro-5-hydroxyphenyl)picolinamide]
IC50 (Pim1 kinase): 1 nM
IC50 (Pim3 kinase): 3 nM

N[C@H]1CCC[C@@H](c2ccncc2NC(=O)c2nc(-c3cc(O)ccc3F)ccc2F)C1 [Example 34, N-(4-((1R,3S)-3-aminocyclohexyl)pyridin-3-yl)-3-fluoro-6-(2-fluoro-5-hydroxyphenyl)picolinamide]
IC50 (Pim1 kinase): 4 nM
IC50 (Pim3 kinase): 6 nM

C[C@@H]1C[C@H](N)C[C@H](c2ccncc2NC(=O)c2cccc(-c3cc(O)ccc3F)n2)C1 [Example 35, N-(4-((1R,3S,5S)-3-amino-5-methylcyclohexyl)pyridin-3-yl)-6-(2-fluoro-5-hydroxyphenyl)picolinamide]
IC50 (Pim1 kinase): 1 nM
IC50 (Pim3 kinase): 3 nM

C[C@@H]1C[C@H](N)C[C@H](c2ccncc2NC(=O)c2cccc(-c3ccc(O)cc3F)n2)C1 [Example 37, N-(4-((1R,3S,5S)-3-amino-5-methylcyclohexyl)pyridin-3-yl)-6-(2-fluoro-4-hydroxyphenyl)picolinamide]
IC50 (Pim1 kinase): 2 nM
IC50 (Pim3 kinase): 5 nM

C[C@@H]1C[C@H](N)C[C@H](c2ccncc2NC(=O)c2ccc(F)c(-c3ccc(O)cc3F)n2)C1 [Example 38, N-(4-((1R,3S,5S)-3-amino-5-methylcyclohexyl)pyridin-3-yl)-5-fluoro-6-(2-fluoro-4-hydroxyphenyl)picolinamide]
IC50 (Pim1 kinase): 1 nM
IC50 (Pim3 kinase): 3 nM

C[C@@H]1C[C@H](N)C[C@H](c2ccncc2NC(=O)c2nc(-c3ccc(O)cc3F)ccc2F)C1 [Example 39, N-(4-((1R,3S,5S)-3-amino-5-methylcyclohexyl)pyridin-3-yl)-3-fluoro-6-(2-fluoro-4-hydroxyphenyl)picolinamide]
IC50 (Pim1 kinase): 7 nM
IC50 (Pim3 kinase): 12 nM

C[C@@H]1C[C@H](N)C[C@H](c2ccncc2NC(=O)c2nc(-c3cc(O)ccc3F)ccc2F)C1 [Example 43, N-(4-((1R,3S,5S)-3-amino-5-methylcyclohexyl)pyridin-3-yl)-3-fluoro-6-(2-fluoro-5-hydroxyphenyl)picolinamide]
IC50 (Pim1 kinase): 1 nM
IC50 (Pim3 kinase): 2 nM

COc1ccc(F)c(-c2nc(C(=O)Nc3cnccc3[C@H]3C[C@@H](N)[C@H](O)[C@@H](C)C3)ccc2F)c1F [Example 47, N-(4-((1R,3R,4R,5S)-3-amino-4-hydroxy-5-methylcyclohexyl)pyridin-3-yl)-6-(2,6-difluoro-3-methoxyphenyl)-5-fluoropicolinamide]
IC50 (Pim1 kinase): 1 nM
IC50 (Pim3 kinase): 3 nM

CC1(C)C[C@H](N)C[C@H](c2ccncc2NC(=O)c2ccc(F)c(-c3c(F)cccc3F)n2)C1 [Example 49, N-(4-((1R,5R)-5-amino-3,3-dimethylcyclohexyl)pyridin-3-yl)-6-(2,6-difluorophenyl)-5-fluoropicolinamide]
IC50 (Pim1 kinase): 1 nM
IC50 (Pim3 kinase): 2 nM

C[C@@H]1C[C@H](N)C[C@H](c2ccncc2NC(=O)c2nc(-c3c(F)cccc3F)c(F)cc2N)C1 [Example 51, 3-amino-N-(4-((1R,3S,5S)-3-amino-5-methylcyclohexyl)pyridin-3-yl)-6-(2,6-difluorophenyl)-5-fluoropicolinamide]
IC50 (Pim1 kinase): 1 nM
IC50 (Pim3 kinase): 1 nM

N[C@H]1CCC[C@@H](c2ccncc2NC(=O)c2ccc(F)c([C@H]3CC[C@@H](O)CC3)n2)C1 [Example 53, N-(4-((1R,3S)-3-aminocyclohexyl)pyridin-3-yl)-5-fluoro-6-((1s,4s)-4-hydroxycyclohexyl)picolinamide]
IC50 (Pim1 kinase): 10 nM
IC50 (Pim3 kinase): 65 nM

N[C@H]1CCC[C@@H](c2ccncc2NC(=O)c2ccc(F)c([C@H]3CC[C@H](O)CC3)n2)C1 [Example 56, N-(4-((1R,3S)-3-aminocyclohexyl)pyridin-3-yl)-5-fluoro-6-((1r,4r)-4-hydroxycyclohexyl)picolinamide]
IC50 (Pim1 kinase): 11 nM
IC50 (Pim3 kinase): 102 nM

C[C@@H]1C[C@H](N)C[C@H](c2ccncc2NC(=O)c2ccc(F)c(-c3cc(F)ccc3F)n2)C1 [Example 61, N-(4-((1R,3S,5S)-3-amino-5-methylcyclohexyl)pyridin-3-yl)-6-(2,5-difluorophenyl)-5-fluoropicolinamide]
IC50 (Pim1 kinase): 1 nM
IC50 (Pim3 kinase): 4 nM

C[C@@H]1C[C@H](N)C[C@H](c2ccncc2NC(=O)c2cccc(-c3ccccc3F)n2)C1 [Example 62, N-(4-((1R,3S,5S)-3-amino-5-methylcyclohexyl)pyridin-3-yl)-6-(2-fluorophenyl)picolinamide]
IC50 (Pim1 kinase): 1 nM
IC50 (Pim3 kinase): 3 nM

C[C@@H]1C[C@H](N)C[C@H](c2ccncc2NC(=O)c2cccc(-c3c(F)cccc3F)n2)C1 [Example 63, N-(4-((1R,3S,5S)-3-amino-5-methylcyclohexyl)pyridin-3-yl)-6-(2,6-difluorophenyl)picolinamide]
IC50 (Pim1 kinase): 1 nM
IC50 (Pim3 kinase): 2 nM

CCCOc1ccc(F)c(-c2nc(C(=O)Nc3cnccc3[C@@H]3CC[C@H](O)[C@H](N)C3)ccc2F)c1 [Example 64, N-(4-((1R,3R,4S)-3-amino-4-hydroxycyclohexyl)pyridin-3-yl)-5-fluoro-6-(2-fluoro-5-propoxyphenyl)picolinamide]
IC50 (Pim1 kinase): 2 nM
IC50 (Pim3 kinase): 5 nM

CCCOc1ccc(F)c(-c2nc(C(=O)Nc3cnccc3[C@@H]3CC[C@H](O)[C@H](N)C3)c(N)cc2F)c1 [Example 67, 3-amino-N-(4-((1R,3R,4S)-3-amino-4-hydroxycyclohexyl)pyridin-3-yl)-5-fluoro-6-(2-fluoro-5-propoxyphenyl)picolinamide]
IC50 (Pim1 kinase): 1 nM
IC50 (Pim3 kinase): 3 nM
